pIC50: −log10 of the molar value. Where two headings read alike, the source gives them in different places. Ends that are not written are not given here.
What was measured:
DRB1*0101 (DR1) = biological target: T1, DRB1*0101 (DR1) (Homo sapiens, UniProt P01903+P01911, A100R/D57E/F55L/F60I/F76Y/I96L/L162R/M171V/P40L/Q125E/R42F/V115G/Y59C); assay: Class II peptide-binding assay, DR1;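 also: competition assay: unlabeled test peptides inhibit binding of a radiolabeled probe peptide to purified DR, with half-maximal inhibition taken as an approximate dissociation constant Kd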
T1 construct: used as sources of human HLA class II molecules; endogenous in cells; host or cells: LG2 (EBV-transformed homozygous B cell line)

DRB5*0101 (DR2w2a) = biological target: T2, DRB5*0101 (DR2w2a) (Homo sapiens, UniProt P01903+Q30154); assay: Class II peptide-binding assay, DR2w2a (DR2w2B2);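 also: competitive binding assay: unlabeled peptide inhibiting binding of a radiolabeled probe peptide to purified DR molecules at pH 7.0, IC50 approximating Kd, lower means stronger binding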
T2 construct: used as sources of human HLA class II molecules; endogenous in cells; host or cells: GM3107 (EBV-transformed homozygous B cell line)

DRB1*0401 (DR4w4) = biological target: T3, DRB1*0401 (DR4w4) (Homo sapiens, UniProt P01903+P01911, A100K/A169T/F76Y/I96L/K127E/L162R/M171V/N62H/P40V/Q125Y/R42H/S133A/S149N/S66Y/V115G/V209L/W38E); assay: Class II peptide-binding assay, DR4w4;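 also: unlabeled test peptides compete with a radiolabeled probe peptide for binding to affinity-purified HLA-DR, with DR amount titrated to capture a small fraction of label, IC50 approximating Kd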
T3 construct: used as sources of human HLA class II molecules; endogenous in cells; host or cells: PREISS (EBV-transformed homozygous B cell line)

DRB10404 (DR4w14) = biological target: T4, DRB10404 (DR4w14) (Homo sapiens, UniProt P01903+P01911, A100R/A169T/F76Y/I96L/K127E/L162R/M171V/N62H/P40V/Q125Y/R42H/S133A/S149N/S66Y/V209L/W38E); assay: Class II peptide-binding assay, DR4w14; conditions: read-out: DR4w14 nM (In IC50 Format); purified HLA DR4w14;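 also: unlabeled peptides compete with a radiolabeled probe for binding to affinity-purified HLA-DR, neutral pH, class II amount titrated to bind a small fraction of label, IC50 approximates Kd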
T4 construct: used as sources of human HLA class II molecules; endogenous in cells; host or cells: BIN40 (EBV-transformed homozygous B cell line)

DRB1*1101 (DR5w11) = biological target: T5, DRB1*1101 (DR5w11) (Homo sapiens, UniProt P01903+P01911, A100R/A169T/A87E/I96F/K41T/L162R/M171V/P40S/Q125H/Q178H/Q39Y/Q99D/R42S/S66Y/T262R/V115G/W38E); assay: Class II peptide-binding assay, DR5w11;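 also: competition by unlabeled test peptide against iodinated probe peptide binding to affinity-purified HLA-DR, class II amount titrated beforehand, half-maximal inhibitory concentration read as approximate Kd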
T5 construct: used as sources of human HLA class II molecules; endogenous in cells; host or cells: SWEIG (EBV-transformed homozygous B cell line)

DRB1*0701 (DR7) = DRB1*0701 (DR7) (Homo sapiens, UniProt P01903+P01911, A100R/A102G/A103Q/D57E/D86V/E43K/F76Y/K127E/L162R/M171V/P40G/Q125H/Q99D/R33Q/R42Y/R54Q/S133A/S66F/T210M/V115G/Y107V/Y59L/Y89S); assay: Class II peptide-binding assay, DR7;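 also: unlabeled peptides compete with an iodinated probe peptide for binding to affinity-purified HLA-DR at neutral pH, DR amount titered to bind a small tracer fraction, IC50 approximating Kd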
DRB4*0101 (DRw53) = biological target: T6, DRB4*0101 (DRw53) (Homo sapiens, UniProt P01903+P13762, G164S); assay type: binding; conditions: read-out: DRw53 nM (In IC50 Format)
T6 construct: expressed in transfected cells; host or cells: L257.6 transfected fibroblasts
Protocol: (§1) Class II peptide-binding assays. […] These assays were chosen as to be representative of the most common DR alleles.
(§2) Radiolabeled peptides were iodinated using the chloramine-T method. […] In appropriate stoichiometric conditions, the IC50 of an unlabeled test peptide to the purified DR is a reasonable approximation of the affinity of interaction (Kd). Peptides were tested in two to four completely independent experiments. […] Final detergent concentration in the incubation mixture was 0.05% Nonidet P-40. Assays were performed at pH 7.0 with the exception of DR3, which was performed at pH 4.5, and DRw53, which was performed at pH 5.0.
(§3) All subsequent inhibition and direct binding assays were the performed using these class II concentrations.

DRB1*0405 (DR4w15) = DRB1*0405 (DR4w15) (Homo sapiens, UniProt P01903+P01911, A100R/A169T/D86S/F76Y/I96L/K127E/L162R/M171V/N62H/P40V/Q125Y/R42H/S133A/S149N/S66Y/V115G/V209L/W38E); assay: Class II peptide-binding assay, DR4w15
Protocol: as §1, §2, §3
DR4w15. The β4 product DRw53 is co-expressed with DR4w15 and the determination of the specificity of the DR4w1 binding assay is complicated in that the same radiolabeled ligand is used for both the DR4w15 and DRw53 binding assays.

DRB1*1201 (DR5w12) = biological target: T7, DRB1*1201 (DR5w12) (Homo sapiens, UniProt P01903+P01911, A100R/A169T/D57E/D86V/F55L/H45Y/K41T/L162R/M171V/P40S/Q125H/Q178H/Q39Y/Q99D/R42G/S66L/T262R/V114A/V67L/W38E/Y59H/Y61H/Y89S); assay: Class II peptide-binding assay, DR5w12
T7 construct: used as sources of human HLA class II molecules; endogenous in cells; host or cells: Herluf (EBV-transformed homozygous B cell line)
Protocol: as §1
(§4) In appropriate stoichiometric conditions, the IC50 of an unlabeled test peptide to the purified DR is a reasonable approximation of the affinity of interaction (Kd). Peptides were tested in two to four completely independent experiments. […] Final detergent concentration in the incubation mixture was 0.05% Nonidet P-40. Assays were performed at pH 7.0 with the exception of DR3, which was performed at pH 4.5, and DRw53, which was performed at pH 5.0.
as §3

DRB1*1302 (DR6w19) = DRB1*1302 (DR6w19) (Homo sapiens, UniProt P01903+P01911, A100E/A169T/K41T/L162R/M171V/P40S/Q125H/Q178H/Q39Y/Q99D/R42S/S66N/T262R/V115G/W38E/Y61H); assay type: binding; conditions: Table V B) Correct Predictions; read-out: Binding Capacity (IC50% nM) DR6w19
Protocol: The lysates were cleared of debris and nuclei by centrifugation at 10,000 x g for 20 min.
Affinity purification of HLA-DR molecules.
as §1, §2, §3
DR6w19. The DR6w19 assay utilizes as the source of class II molecules the EBV transformed homozygous cell line H0301, which co-expresses DRB30301 (DR52a). While the radiolabeled ligand used in the DR6w19 assay is different than that used for the DR52a assay, the ligand is related (i.e., is a single substitution analog) to a high affinity DR52a binder. As was done in the case of DR4w15, the specificity of the assay was investigated by analyzing the binding capacity of a panel of naturally occurring peptides for DR6w19 and DR52a.

DRB1*0802 (DR8w2) = biological target: T8, DRB1*0802 (DR8w2) (Homo sapiens, UniProt P01903+P01911, A100R/A103L/A169T/F76Y/H45Y/I96F/K41T/L162R/M171V/P40S/Q125H/Q178H/Q39Y/Q99D/R218S/R42G/S66Y/V115G/W38E); assay: Class II peptide-binding assay, DR8w2
T8 construct: used as sources of human HLA class II molecules; endogenous in cells; host or cells: OLL (EBV-transformed homozygous B cell line)
Protocol: as §1, §2, §3
DR8w2 and DR8w3. The β1 specificity of the DR8w2 and DR8w3 assays is obvious in that no β3 (and/or B4 and β5) molecule is expressed.

[1] = system: panel of purified HLA DR molecules; assay type: binding, human;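 also: competitive inhibition of radiolabeled probe peptide binding to purified HLA DR molecules, with inhibitory potency of unlabeled peptides taken as an approximation of affinity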
Protocol: as §1, §2, §3

DRB1*1501 (DR2w2b) = biological target: T9, DRB1*1501 (DR2w2b) (Homo sapiens, UniProt P01903+P01911); assay: Class II peptide-binding assay, DR2w2b (DR2w2B1); conditions: Table V A) Non Predictions; read-out: Binding Capacity DR2w2b
T9 construct: expressed in transfected cells; host or cells: L466.1 transfected fibroblasts
Protocol: as §1, §4, §3

DRB1*0901 (DR9) = biological target: T10, DRB1*0901 (DR9) (Homo sapiens, UniProt P01903+P01911, A100R/A103E/D57H/D86V/F55Y/F60I/F76Y/I96F/K127E/L162R/M171V/P40D/Q125H/Q99R/R33Q/R42F/S133A/S66N/T210M/V115G/W38K/Y107V/Y59G/Y89S); assay: Class II peptide-binding assay, DR9; conditions: Table V A) Non Predictions; read-out: Binding Capacity DR9
T10 construct: used as sources of human HLA class II molecules; endogenous in cells; host or cells: HTC9074 (EBV-transformed homozygous B cell line); gift of Dr. Paul Harris
Protocol: as §1, §4, §3

T5 sequence (P01903 26-254, other chains not shown): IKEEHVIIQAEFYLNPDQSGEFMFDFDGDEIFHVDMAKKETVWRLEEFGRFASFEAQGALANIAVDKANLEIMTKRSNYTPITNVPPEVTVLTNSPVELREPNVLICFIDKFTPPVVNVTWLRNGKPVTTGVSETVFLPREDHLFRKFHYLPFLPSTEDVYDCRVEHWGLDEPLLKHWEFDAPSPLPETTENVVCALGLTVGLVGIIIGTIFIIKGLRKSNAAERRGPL
DRB1*1302 (DR6w19), sequence (P01903 26-254, other chains not shown): as above

For YARFQRQTTLKAAA-NH2 [Peptide 717.10], the pIC50 (DRB1*0101 (DR1); read-out: DR1 nM (In IC50 Format), purified HLA DR1) was 8.54, the pIC50 (DRB5*0101 (DR2w2a); read-out: DR2w2B2 nM (In IC50 Format), purified HLA DR2w2β2) was 7.25 and the pIC50 (DRB1*0401 (DR4w4); read-out: DR4w4 nM (In IC50 Format), purified HLA DR4w4) was 8.25. The pIC50 (DRB10404 (DR4w14)) was 7.89, the pIC50 (DRB1*1101 (DR5w11); read-out: DR5w11 nM (In IC50 Format), purified HLA DR5w11) was 8.06 and the pIC50 (DRB1*0701 (DR7); read-out: DR7 nM (In IC50 Format), purified HLA DR7) was 5.45. For the same substance, the pIC50 (DRB4*0101 (DRw53)) was 8.19.
Substance LAAIIFLFGPPTALRS [Peptide 1136.28] has an IC50 (DRB1*0101 (DR1); Table V B) Correct Predictions, read-out: Binding Capacity (IC50% nM) DR1) of 0.23 nM, an IC50 (DRB5*0101 (DR2w2a); Table V B) Correct Predictions, read-out: Binding Capacity (IC50% nM) DR2w2a) of 1480 nM and an IC50 (DRB1*0401 (DR4w4); Table V B) Correct Predictions, read-out: Binding Capacity (IC50% nM) DR4w4) of 849 nM. The IC50 (DRB1*0405 (DR4w15); Table V B) Correct Predictions, read-out: Binding Capacity (IC50% nM) DR4w15) was 6670 nM, the IC50 (DRB1*1201 (DR5w12); Table V B) Correct Predictions, read-out: Binding Capacity (IC50% nM) DR5w12) was 4480 nM and the IC50 (DRB1*1302 (DR6w19)) was 3180 nM. The IC50 (DRB1*0701 (DR7); Table V B) Correct Predictions, read-out: Binding Capacity (IC50% nM) DR7) was 3620 nM, the IC50 (DRB1*0802 (DR8w2); Table V B) Correct Predictions, read-out: Binding Capacity (IC50% nM) DR8w2) was 7540 nM and the “Total Alleles Bound” value [1] was 3.
With GPPTALRSFGFAFGYM [Peptide 1136.29] the pIC50 (DRB1*0101 (DR1); Table V A) Non Predictions, read-out: Binding Capacity DR1) was 7.49, the pIC50 (DRB1*1501 (DR2w2b)) was 8.96 and the pIC50 (DRB5*0101 (DR2w2a); Table V A) Non Predictions, read-out: Binding Capacity DR2w2a) was 6.33. It also gave a pIC50 (DRB1*0401 (DR4w4); Table V A) Non Predictions, read-out: Binding Capacity DR4w4) of 5.36, a pIC50 (DRB1*0405 (DR4w15); Table V A) Non Predictions, read-out: Binding Capacity DR4w15) of 6.13 and a pIC50 (DRB1*1101 (DR5w11); Table V A) Non Predictions, read-out: Binding Capacity DR5w11) of 5.20. It also gave a pIC50 (DRB1*1201 (DR5w12); Table V A) Non Predictions, read-out: Binding Capacity DR5w12) of 6.00, a pIC50 (DRB1*0802 (DR8w2); Table V A) Non Predictions, read-out: Binding Capacity DR8w2) of 5.53 and a pIC50 (DRB1*0901 (DR9)) of 6.74. The “Total Alleles Bound” value ([1]; Table V A) Non Predictions, 12 DR molecules listed) was 7.

From patent EP1388586A2, “Identification of broadly reactive DR restricted epitopes” (priority 1998, dated 1999)
